Data set [1] is described as follows: Inhibition of Toxoplasma gondii cathepsin L.
Data set [2] can be described thus: Efflux ratio of apparent permeability across basolateral to apical side over apical to basolateral side in MDCK-MDR1 cells. To be noted: dog. Format: ADME, cell-based, Canis lupus familiaris.
Data set [3] is described as follows: Ratio of AUC in Brain to plasma in mouse at 10 mg/kg, po. Format: ADME, organism-based. To be noted: brain and plasma, read-out: Ratio AUC.
For the next data set, the target named is Procathepsin L (Homo sapiens, UniProt P07711). Nature of the data set: Inhibition of human cathepsin L.
Sequence of Procathepsin L (P07711 whole entry): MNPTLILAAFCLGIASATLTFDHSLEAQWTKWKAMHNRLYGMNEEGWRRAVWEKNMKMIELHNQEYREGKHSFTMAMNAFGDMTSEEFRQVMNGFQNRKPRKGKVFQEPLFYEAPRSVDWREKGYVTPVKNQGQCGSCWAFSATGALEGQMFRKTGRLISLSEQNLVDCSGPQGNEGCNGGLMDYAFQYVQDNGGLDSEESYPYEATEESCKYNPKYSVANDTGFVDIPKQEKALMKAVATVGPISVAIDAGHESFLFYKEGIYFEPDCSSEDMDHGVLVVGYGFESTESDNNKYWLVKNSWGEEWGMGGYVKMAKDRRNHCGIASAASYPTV
Data set [4] can be described thus: Unbound brain-to-plasma concentration ratio in mouse at 30 mg/kg, po. Format: ADME, organism-based. To be noted: brain and plasma, read-out: K(p,uu,brain).
Data set [5] can be described thus: Apparent permeability in MDCKII-MDR1 cells. Format: ADME, cell-based, Canis lupus familiaris. The note with it: dog, MDCK-MDR1.
Data set [6] in a line: Prodrug release in mouse brain assessed as AUC of ibuprofen after 60 mins. Further details: time 60 min. Format: ADME, tissue-based. The note with it: in vivo, 1 h.
Data set [7] can be described thus: Prodrug release in mouse brain assessed as Cmax of ibuprofen after 60 mins. Format: ADME, tissue-based. Further details: time 60 min. The note with it: in vivo, 1 h.
Data set [8] can be described thus: Prodrug release in mouse assessed as unbound brain to plasma concentration of ketoprofen at 30 mg/kg, po. Format: ADME, organism-based.
Data set [9] can be described thus: Prodrug release in mouse assessed as nipecotic-acid concentration in brain at 15 mg/kg, iv after 30 mins. Format: ADME, organism-based. The note with it: in vivo, 0.5 h.
The nature of data set [10]: AUC in mouse brain at 48 mmol/kg, iv after 25 mins. Format: ADME, organism-based. Also noted: time 25 min, dose 48 mmol/Kg, route iv. To be noted: in vivo.
A short description of data set [11]: Cmax in mouse brain at 48 mmol/kg, iv after 25 mins. Further details: dose 48 mmol/Kg, time 25 min, route iv. Format: ADME, organism-based.

The record followed here is ChEMBL document CHEMBL5226339, “Strategies for Structural Modification of Small Molecules to Improve Blood-Brain Barrier Penetration: A Recent Perspective” (J Med Chem, 2021).

The IC50 is the concentration that gives 50% inhibition. For orientation: efflux ratio means a quotient of directional permeabilities that is used to spot active efflux. As usually defined, the Papp is a coefficient for how fast a substance crosses the barrier. A word on the Cmax: it is the highest concentration seen after dosing.

Take `CC(C)CCN(c1nc(C#N)nc(N2CCOCC2)n1)C(C)c1ccc(F)cc1` (centres undefined): the IC50 in data set [1] was determined as 92 nM; at Procathepsin L, 23 nM. In data set [2], the efflux ratio is 0.223. Also, the Kp in data set [3] worked out at 0.52.

`CC(C(=O)O)c1cccc(C(=O)c2ccccc2)c1` (centres undefined) [KETOPROFEN]: the Kp uu in [4] turned out to be 0.01.

Regarding `CC(c1cc(O)ccc1O)N(C)C.Cl` (centres undefined), the Papp in data set [5] was 26.3 ×10⁻⁶ cm/s.

Regarding `CC(c1cccc(O)c1O)N(C)C.Cl` (centres undefined), the Papp in data set [5] amounted to 23.9 ×10⁻⁶ cm/s.

For `CC(c1ccc(O)c(O)c1)N(C)C.Cl` (centres undefined), in [5], the Papp is 1.13 ×10⁻⁶ cm/s.

For the compound `CC(C)Cc1ccc(C(C)C(=O)O[C@@H](CN(C)C)[C@H]2OC(=O)C(O)=C2O)cc1` (some centres undefined), in data set [6], the AUC is 5870 µg·min/g. In addition, the highest concentration (Cmax) in data set [7] worked out at 52.6 µg/g.

Take `C[C@H](C(=O)Nc1cccc(C[C@@H](N)C(=O)O)c1)c1cccc(C(=O)c2ccccc2)c1`: the “K(p,uu,brain)” value in [8] is 0.13.

As for `N#Cc1nc(N2CCOCC2)nc(N(Cc2ccc(F)cc2)CC2CCCNC2)n1` (centres undefined), the IC50 in [1] came out at 181 nM; at Procathepsin L it was 1200 nM. Also, in data set [2], the efflux ratio was determined as 17.2. Also, in [3], the Kp came to 0.15.

For `C[C@H](C(=O)Nc1ccc(C[C@@H](N)C(=O)O)cc1)c1cccc(C(=O)c2ccccc2)c1`, the “K(p,uu,brain)” value in [8] came out at 0.35.

Turning to `N[C@@H](COC(=O)C1CCCNC1)C(=O)O` (some centres undefined), in [9], the Drug metabolism is on record as 450 nmol/g.

Take `CC(C)Cc1ccc(C(C)C(=O)O)cc1` (centres undefined) [IBUPROFEN]: in data set [10], the AUC worked out at 1860 µg·min/g. The compound also displayed a Cmax in data set [11] of 10.7 µg/g.
